Data: patent US20070078111A1, “LPA2 receptor agonist inhibitors of CFTR” (priority 2005, published 2007)

Columns and labels:
LPA2 receptor = LPA2 receptor (Homo sapiens, UniProt Q9HBW0); assay: LPA2 receptor agonist activity (EC50, Emax); type: cell-based; conditions: for LPA2 (Emax): value in parentheses
[1] = tested on: CTX-induced Cl- secretion; type: in vivo, C57BL/6 mice; conditions: 6 hours
CFTR = assay: Iodide efflux measurements in Calu-3 cells; type: cell-based, human; conditions: for CFTR activity, peak iodide efflux in response to adenosine: adenosine as CFTR agonist, FIG. 2C
CFTR Cl- channel [2] = assay: Short-circuit current (Isc) in polarized Calu-3 monolayers; type: cell-based, human
Experimental: (§1) Calu-3 and HT29-CL19A polarized cell monolayers were grown to confluency on Costar Transwell permeable supports (filter area is 0.33 cm^2). Filters were mounted in an Ussing chamber, and short-circuit currents (Isc) mediated through CFTR Cl^− channel were carried out as described previously (31). Epithelia were bathed in Ringer's solution (mM) (serosal/basolateral: 140 NaCl^−, 5 KCl, 0.36 K2HPO4, 0.44 KH2PO4, 1.3 CaCl2, 0.5 MgCk2, 4.2 NaHCO3, 10 Hepes, 10 glucose, pH 7.2, [Cl^−]=149), and low Cl-Ringer's solution (mM) (luminal/apical: 133.3 Na-gluconate, 5 K-gluconate, 2.5 NaCl, 0.36 K2HPO4, 0.44 KH2PO4, 5.7 CaCl2, 0.5 MgCl2, 4.2 NaHCO3, 10 Hepes, 10 mannitol, pH 7.2, [Cl^−]=14.8) at 37° C., gassed with 95% O2 and 5%) […] CO2. LPA (20:4) was added into both the luminal (apical) side and serosal (basolateral) side of the cell monolayers for 30 min before adenosine (ADO) was added into the luminal/apical side. […]

NHERF2 = target: T1, NHERF2 (Homo sapiens, UniProt Q15599); assay: NHERF2 binding to LPA2 in the presence of LPA2-specific peptide; conditions: FIG. 4H
T1 construct: GST
Experimental: This assay (34) was performed using maltose binding protein (MBP)-CFTR-C tail fusion protein (1 μM) immobilized on amylose beads (20 μl) and incubated with GST-NHERF2. This step, which is called pairwise binding, was done in 200 μl of lysis buffer (PBS-0.2% Triton-X 100+protease inhibitors) and mixed at 22° C. for 2 h. The complex was washed once with the same buffer and allowed to bind Flag-tagged LPA2 from lysates of BHK cells expressing the receptor. The binding was done at 4° C. for 3 h with constant mixing. The complex was washed with lysis buffer, eluted with sample buffer, and analyzed by immunoblotting using anti-Flag monoclonal antibody.

[3] = tested on: CTX-induced intestinal fluid secretion; type: in vivo, CD1 mice
CFTR Cl- channel [4] = assay: Short-circuit current (Isc) in polarized HT29-CL19A monolayers; type: cell-based, human; conditions: HT29 cells; LPA (20:4) pretreatment 30 min; FIG. 2E
Experimental: as §1

CFTR Cl- channel [5] = assay: Short-circuit current (Isc) in isolated mouse intestine; conditions: isolated mouse intestine pretreated with LPA (20:4); dose-dependent; FIG. 2G, 2H
Experimental: as §1

LPA2 receptor, sequence (Q9HBW0 whole entry): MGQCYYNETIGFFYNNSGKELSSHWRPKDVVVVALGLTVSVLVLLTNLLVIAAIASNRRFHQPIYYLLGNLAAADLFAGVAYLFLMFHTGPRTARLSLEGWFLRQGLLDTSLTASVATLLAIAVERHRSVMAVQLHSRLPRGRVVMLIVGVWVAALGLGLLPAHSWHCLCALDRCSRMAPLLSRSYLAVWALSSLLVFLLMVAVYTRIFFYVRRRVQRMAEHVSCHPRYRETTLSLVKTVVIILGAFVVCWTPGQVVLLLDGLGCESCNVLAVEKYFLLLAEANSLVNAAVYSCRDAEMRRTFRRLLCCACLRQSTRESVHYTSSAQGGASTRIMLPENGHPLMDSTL
T1 sequence (Q15599 whole entry): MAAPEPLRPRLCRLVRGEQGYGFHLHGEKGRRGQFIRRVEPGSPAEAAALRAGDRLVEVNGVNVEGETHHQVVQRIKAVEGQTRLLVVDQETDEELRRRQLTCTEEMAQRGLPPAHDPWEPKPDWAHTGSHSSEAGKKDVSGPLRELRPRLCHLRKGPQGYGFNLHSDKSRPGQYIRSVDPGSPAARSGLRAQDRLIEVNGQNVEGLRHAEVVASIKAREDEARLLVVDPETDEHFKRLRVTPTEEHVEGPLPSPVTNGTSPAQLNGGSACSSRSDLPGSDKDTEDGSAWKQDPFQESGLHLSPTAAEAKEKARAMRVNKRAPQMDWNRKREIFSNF

Compound: CCCCCCCC=CCCCCCCCC[C@@H]1OC[C@H](COP(=O)([O-])O)O1.[K+] [(2R,4R) Mono potassium phosphoric acid O-(2-heptadec-9-enyl-(1,3)-dioxolan-4-ylmethyl) ester]
- EC50 (LPA2 receptor; Table 2): 1710 nM
- LPA2 (Emax) (LPA2 receptor; Table 2): 42

Compound: CCCCCCCC=CCCCCCCCC[C@@H]1OC[C@H](COP([O-])(O)=S)O1.[K+] [(2R,4R) Mono potassium thiophosphoric acid O-(2-heptadec-9-enyl-(1,3)-dioxolan-4-ylmethyl) ester]
- EC50 (LPA2 receptor; Table 2): 1090 nM
- LPA2 (Emax) (LPA2 receptor; Table 2): 85

Compound: CCCCCCCC=CCCCCCCCC[C@@H]1OC[C@@H](COP([O-])(O)=S)O1.[K+] [(2R,4S) Mono potassium thiophosphoric acid O-(2-heptadec-9-enyl-(1,3)-dioxolan-4-ylmethyl) ester]
- EC50 (LPA2 receptor; Table 2): 1540 nM
- LPA2 (Emax) (LPA2 receptor; Table 2): 72

Compound: CCCCCCCC=CCCCCCCCC[C@H]1OC[C@H](COP([O-])(O)=S)O1.[K+] [(2S,4R) Mono potassium thiophosphoric acid O-(2-heptadec-9-enyl-(1,3)-dioxolan-4-ylmethyl) ester]
- EC50 (LPA2 receptor; Table 2): 1300 nM
- LPA2 (Emax) (LPA2 receptor; Table 2): 77

Compound: CCCCCCCC=CCCCCCCCC[C@H]1OC[C@@H](COP([O-])(O)=S)O1.[K+] [(2S,4S) Mono potassium thiophosphoric acid O-(2-heptadec-9-enyl-(1,3)-dioxolan-4-ylmethyl) ester]
- EC50 (LPA2 receptor; Table 2): 1320 nM
- LPA2 (Emax) (LPA2 receptor; Table 2): 87

Compound: CCCCCCCC(=O)OC[C@H](COP(O)(O)=S)OC(=O)CCCCCCC [(R)-Octanoic acid 1-octanoyloxymethyl-2-thiophosphonooxy-ethyl ester]
- LPA2 (Emax) (LPA2 receptor; Table 1): 58

Compound: CCCCCCCCOC[C@H](COP(O)(O)=S)OCCCCCCCC [(R)-Thiophosphoric acid O-(2,3-bis-octyloxy-propyl) ester]
- EC50 (LPA2 receptor; Table 1): 5720 nM
- LPA2 (Emax) (LPA2 receptor; Table 1): 27

Compound: CCCCCCCC(=O)OC[C@@H](COP(O)(O)=S)OC(=O)CCCCCCC [(S)-Octanoic acid 1-octanoyloxymethyl-2-thiophosphonooxy-ethyl ester]
- LPA2 (Emax) (LPA2 receptor; Table 1): 17

Compound: CCCCCCCC/C=C\CCCCCCCCOP(O)(O)=S [FAP 18:1d9, fatty alcohol thiophosphate 18:1d9]
- intestinal fluid accumulation [1]: significantly reduced
- ratio of intestinal weight before to after luminal fluid removal [1]: statistically significant reduction

Compound: CCCCCCCC/C=C\CCCCCCCC(=O)OC[C@@H](O)COP(=O)(O)O [LPA 18:1]
- rank order of inhibition of peak iodide efflux in response to adenosine (CFTR; Calu-3 cells, […], FIG. 2D): LPA 20:4>LPA 18:2>LPA 18:1

Compound: CC=CCC=CCC=CCCCCCCCCC1OCC(COP(=O)(O)O)O1.[K] (stereo not drawn) [Mono potassium phosphoric acid O-(2-heptadec-9,12,15-trienyl-(1,3)-dioxolan-4-ylmethyl) ester]
- EC50 (LPA2 receptor; Table 2): 1710 nM
- LPA2 (Emax) (LPA2 receptor; Table 2): 51

Compound: CCCCCCCC=CCCCCCCCCC1OCC(COP(O)(O)=S)O1.[K] (stereo not drawn) [Mono potassium thiophosphoric acid O-(2-heptadec-9-enyl-(1,3)-dioxolan-4-ylmethyl) ester]
- EC50 (LPA2 receptor; Table 2): 1170 nM
- LPA2 (Emax) (LPA2 receptor; Table 2): 87

Compound: C=CCCCCCCCCOP(=O)(O)O [Phosphoric acid monodec-9-enyl ester]
- EC50 (LPA2 receptor; Table 1): 3800 nM
- LPA2 (Emax) (LPA2 receptor; Table 1): 100

Compound: CCCCCCCCCCOP(=O)(O)O [Phosphoric acid monodecyl]
- EC50 (LPA2 receptor; Table 1): 1800 nM
- LPA2 (Emax) (LPA2 receptor; Table 1): 82

Compound: CC/C=C\CCCCCCCCOP(=O)(O)O [Phosphoric acid monododec-9-enyl ester]
- EC50 (LPA2 receptor; Table 1): 717 nM
- LPA2 (Emax) (LPA2 receptor; Table 1): 78

Compound: CCCCCCCCCCCCOP(=O)(O)O [Phosphoric acid monododecyl ester]
- EC50 (LPA2 receptor; Table 1): 3100 nM
- LPA2 (Emax) (LPA2 receptor; Table 1): 50

Compound: CCCC/C=C\CCCCCCCCOP(=O)(O)O [Phosphoric acid monotetradec-9-enyl ester]
- EC50 (LPA2 receptor; Table 1): 397 nM
- LPA2 (Emax) (LPA2 receptor; Table 1): 58

Compound: CC/C=C\CCCCCCCCCCOP(=O)(O)O [Phosphoric acid monotetradec-11-enyl ester]
- EC50 (LPA2 receptor; Table 1): 4100 nM
- LPA2 (Emax) (LPA2 receptor; Table 1): 75

Compound: CCCCCCCCCCOP(O)(O)=S [Thiophosphoric acid O- decyl ester]
- EC50 (LPA2 receptor; Table 1): 4570 nM
- LPA2 (Emax) (LPA2 receptor; Table 1): 100

Compound: CCCCCCCCCCCCOP(O)(O)=S [Thiophosphoric acid O- dodecyl ester]
- binding to the LPA2 receptor and thereby inhibiting CFTR activation (LPA2 receptor): particularly effective
- EC50 (LPA2 receptor; Table 1): 1000 nM
- LPA2 (Emax) (LPA2 receptor; Table 1): 100

Compound: CCCCCCCCCCCCCCOP(O)(O)=S [Thiophosphoric acid O- tetradecyl ester]
- binding to the LPA2 receptor and thereby inhibiting CFTR activation (LPA2 receptor): particularly effective
- EC50 (LPA2 receptor; Table 1): 2500 nM
- LPA2 (Emax) (LPA2 receptor; Table 1): 100

Compound: CCCC/C=C\CCCCCCCCOP(O)(O)=S [Thiophosphoric acid O-tetradec-9-enyl ester]
- binding to the LPA2 receptor and thereby inhibiting CFTR activation (LPA2 receptor): particularly effective
- EC50 (LPA2 receptor; Table 1): 480 nM
- LPA2 (Emax) (LPA2 receptor; Table 1): 150

Compound: CC/C=C\CCCCCCCCOP(O)(O)=S [drawing 10, Thiophosphoric acid O-dodec-9-enyl ester]
- binding to the LPA2 receptor and thereby inhibiting CFTR activation (LPA2 receptor): particularly effective
- EC50 (LPA2 receptor; Table 1): 677 nM
- LPA2 (Emax) (LPA2 receptor; Table 1): 100

Compound: CCCCCCCC/C=C\CCCCCCCCOP(O)(O)=S [drawing 12, Thiophosphoric acid O-octadec-9-enyl ester]
- binding to the LPA2 receptor and thereby inhibiting CFTR activation (LPA2 receptor): particularly effective
- EC50 (LPA2 receptor; Table 1): 244 nM
- LPA2 (Emax) (LPA2 receptor; Table 1): 175

Compound: LPA2-specific peptide: peptide containing the PDZ motif of LPA2 (last 11 amino acids; a.a. 341 to 351, ENGHPLMDSTL)
- reversal of LPA-elicited inhibition on CFTR-dependent Cl- currents (Isc) (CFTR Cl- channel [2]; peptide delivered with Chariot, 25 μM LPA (20:4) 30 min, adenosine 0-20 μM, FIG. 4F): significantly reversed
- competition with LPA2 for binding to NHERF2 (NHERF2): could compete with LPA2 for binding to NHERF2 in a dose-dependent manner

Compound: lysophosphatidic acid [LPA]
- ratio of intestinal weight before to after luminal fluid removal [1]: statistically significant reduction
- effect of LPA alone on CFTR channel function (iodide efflux) (CFTR; Calu-3 cells, LPA alone, no cpt-cAMP): had no effect
- CFTR activity, peak iodide efflux in response to adenosine (CFTR; Calu-3 cells): dose-dependent inhibition
- response of Calu-3 cells to cpt-cAMP stimulation (iodide efflux) (CFTR; LPA pretreatment, FIG. 2A: LPA 18:1 (20 μM), cpt-cAMP 200 μM): reduced the response
- CFTR-dependent Cl- currents (Isc) in response to adenosine (CFTR Cl- channel [2]; Calu-3 cells, LPA pretreatment 30 min, FIG. 2F): significantly inhibited
- CTX-elicited CFTR-dependent intestinal fluid secretion (ileal loop weight) ([3]; 6 h): significantly reducing fluid accumulation to the level of PBS control loops
- fluid accumulation in toxin-treated intestinal loops ([3]; mouse, in vivo): efficiently reduced the fluid accumulation
- CFTR-dependent Cl- currents (Isc) in response to adenosine (CFTR Cl- channel [4]): significantly inhibited
- Isc in response to cpt-cAMP stimulation (CFTR Cl- channel [5]): inhibited

Compound: pertussis toxin [PTX]
- reversal of LPA-dependent inhibition of CFTR function (iodide efflux) (CFTR; Calu-3 cells pretreated with PTX 100 or 200 ng/ml for 24 h): reversed LPA-dependent inhibition of CFTR function in a dose-dependent fashion

Compound: phosphatidic acid [PA]
- CFTR activity, peak iodide efflux in response to adenosine (CFTR; Calu-3 cells): did not show any significant effect
